Earlier results in paper PMC8198792, “Prediction of Anticancer Peptides with High Efficacy and Low Toxicity by Hybrid Model Based on 3D Structure of Peptides” (International Journal of Molecular Sciences, 2021).
Like-named read-outs stand apart in the source and are kept apart here.

Tested on: cancer cell lines
Set-up: method as in 6 sources, ref CancerPPD [45] and SATPdb ||| ref CancerPPD/SATPdb ||| ref CancerPPD, SATPdb, Swissprot (PDB) ||| ref CancerPPD/SATPdb/Swissprot(PDB) ||| ref CancerPPD / SATPdb ||| ...
Details: cited from earlier work
Excerpt: Supplement ijms-22-05630-s001.zip/ACPs(seguence).xlsx, sheet "D1" | column: Activity || Supplement ijms-22-05630-s001.zip/ACPs(seguence).xlsx, sheet "D2" | column: Activity || Supplement ijms-22-05630-s001.zip/ACPs(seguence).xlsx, sheet "D3" | column: Activity || (+ 2 further places)

[1] = ACPs dataset D1, 1 = ACP (positive), 0 = non-ACP (negative), label taken from databases, ref CancerPPD [45] and SATPdb
[2] = ACPs dataset D4 (sheet "D4"), label 1 = ACP (CancerPPD ID), 0 = non-ACP (non-anticancer AMP, SATPdb ID), ref CancerPPD [45] and SATPdb
[3] = ACPs dataset D1, label 1 = ACP, 0 = non-ACP (non-anticancer AMPs from SATPdb), ref CancerPPD/SATPdb
[4] = ACPs dataset D4 (sheet "D4"), label 1 = ACP, experimentally validated ACPs, ref CancerPPD [45] and SATPdb
[5] = ACPs dataset D5 (sheet "D5"), label 1 = ACP (positive set), sequences with CancerPPD/SATPdb ID, ref CancerPPD, SATPdb
[6] = ACPs dataset sheet D2, 1 = ACP (CancerPPD/SATPdb ID), 0 = non-ACP (Swissprot/PDB ID), ref CancerPPD, SATPdb, Swissprot (PDB)
[7] = ACPs dataset D2 (supplement ACPs(seguence).xlsx, sheet D2), dataset label 1/0 (ACP / non-ACP), entries identified by Swissprot(PDB ID), ref CancerPPD/SATPdb/Swissprot(PDB)
[8] = ACPs dataset D5 (sheet "D5"), label 1 = ACP (positive set), 0 = non-ACP (negative set), ref CancerPPD [45] and SATPdb
[9] = ACPs dataset D3 (supplement sheet "D3"), 1 = ACP, 0 = non-ACP, ref CancerPPD [45] and SATPdb
[10] = ACPs dataset D4 (sheet "D4"), label 1 = ACP, 0 = non-ACP, ref CancerPPD / SATPdb
[11] = ACPs dataset D5, sheet "D5", label 1 = ACP, 0 = non-ACP, ref CancerPPD [45] and SATPdb
[12] = ACPs dataset D3 (sheet "D3"), label 1 = ACP, 0 = non-ACP, ref CancerPPD/SATPdb

Substance | Activity [1] | Activity [2] | Activity [4] | Activity [5] | Activity [6] | Activity [8] | also measured
ITPATPFTPAIITEITAAVIA [satpdb10693] | 0 | 0 |  |  |  |  | 
GVFTLIKGATQLIGKTLGKELGKTGLEIMACKITKQC [satpdb12576] |  | 0 |  |  |  |  | Activity [3]: 0
PRFWEYWLRLAE [compound 4587] | 1 |  | 1 | 1 | 1 |  | 
TITLSTCAILSKPLGNNGYLCTVTKECMPSSCN [satpdb12698] |  | 0 |  |  |  |  | Activity [3]: 0
ESVFSKIGNAVGPAAYWILKGLGNMSDVNQADRINRKKH [satpdb11882] |  | 0 |  |  |  |  | Activity [3]: 0
IFGAIWKGISSLL [satpdb10136] | 0 | 0 |  |  |  |  | 
KTCENLSGTFKGPCIPDGNCNKHCRNNEHLLSGRCRDDFRCWCTNRC [6NOM NMR - A 1-47] |  |  |  |  |  | 0 | Activity [7]: 0
GLFDIVKKVVGAIGSL [compound 4407] | 1 |  | 1 | 1 | 1 |  | 
MSAGVITGVLLVFLLLGYLVYALINAEAF [6HRA electron microscopy 3.70, D ,1-29] |  |  |  |  | 0 | 0 | 
VIFEWTLLQVLSESDQDQSLEVFLT [satpdb18497] | 1 |  | 1 | 1 | 1 |  | 
KAFDITYVRLKF [satpdb20842] | 1 |  | 1 | 1 | 1 |  | 
SGSDGGVCPKILKKCRRDSDCPGACICRGNGYCG [1HA9 NMR - A 1-34] |  |  |  |  | 0 | 0 | 
KKWGWLAWVDPAYEFIKGFGKGAIKEGNKDKWKNI [2JPK NMR - A 1-35] |  |  |  |  |  | 0 | Activity [7]: 0
KWKSFLKTFKSLKKTVLHTLLkAISS [compound 3767] |  | 1 |  |  |  | 1 | Activity [9]: 1
RCRLAERRQIAK [satpdb18274] | 1 |  | 1 | 1 | 1 |  | 
KKVCACPKILKPVCGSDGRTYANSCIARCNGVSIKSEGSCPTGILN [1LDT X-ray 1.90,L,1-46] |  |  |  |  |  | 0 | Activity [7]: 0
GLFAVIKKVAAVIRRL [compound 4129] |  | 1 |  |  |  | 1 | Activity [9]: 1
WYVKKCLNDVGICKKKCKPEEMHVKNGWAMCGKGRDCCVPAD [satpdb13381] |  |  |  |  |  |  | Activity [3]: 0; Activity [10]: 0
FAKKLAKLAKKLLAL [compound 1790] |  |  | 1 | 1 |  |  | Activity [9]: 1
PRFWEYWLRAME [compound 4586] | 1 |  | 1 | 1 | 1 |  | 

Substance | Activity [1] | Activity [2] | Activity [4] | Activity [5] | Activity [6] | Activity [8] | also measured
MPTWAWWLFLVLLLALWAPARG [satpdb27488] | 1 |  | 1 | 1 | 1 |  | 
GKWMSLWKHILK [compound 3657] |  | 1 |  |  |  | 1 | Activity [9]: 1
GIPCAESCVWIPCTVTALLGCSCSNKVCYN [satpdb12637] |  | 0 |  |  |  |  | Activity [3]: 0
CSNLSTCVLGKLSQELHKLQTYPRTDVGAGTP [1BKU NMR - A 1-32] |  |  |  |  | 0 | 0 | 
MVAYWRQAGLSYIRYSQICAKAVRDALKTEFKANAMKTSGSTIKIVKVKKE [2W6J X-ray 3.84,I,1-51] |  |  |  |  |  |  | Activity [7]: 0; Activity [11]: 0
CETWRTETTGATGQASSLLSGRLLEQKAASCHNSYIVLCIENSFMTSFSK [satpdb15843] | 1 |  | 1 | 1 | 1 |  | 
GKWLSLLKHILK [compound 3661] |  | 1 |  |  |  | 1 | Activity [9]: 1
FLGALLGPLMNLLQ [satpdb14038] |  |  |  |  |  |  | Activity [12]: 0; Activity [10]: 0; Activity [11]: 0
MVEPLLDGLVLGLVFATLGGLFYAAYQQYKRPNELGG [4I7Z X-ray 2.80 G 1-37] |  |  |  |  |  | 0 | Activity [7]: 0
GFKDLLKGAAKALVKTVLF [compound 4388] | 1 |  | 1 | 1 | 1 |  | 
MLELLKSLVFAVIMVPVVMAIILGLIYGLGEVFNIFSGVGKKDQPGQNH [4C48 X-ray 3.30,C,1-49] |  |  |  |  |  | 0 | Activity [7]: 0
GMWKKILGKLIR [compound 3643] |  | 1 |  |  |  | 1 | Activity [9]: 1
FLPIIGQLLSGLL [satpdb10701] |  |  |  |  |  |  | Activity [9]: 0; Activity [10]: 0; Activity [11]: 0
PAWRKARRWARRMKKLAA [compound 1618] | 1 |  | 1 | 1 | 1 |  | 
ATCDLLSPFKVGHAACAAHCIARGKRGGWCDKRAVCNCRK [satpdb11323] | 0 | 0 |  |  |  |  | 
GLLGPLLKIAKKVGSNLL [satpdb10622] |  |  |  |  |  |  | Activity [9]: 0; Activity [10]: 0; Activity [11]: 0
GLFDVIKAVASVIGGL [compound 4057] |  | 1 |  |  |  | 1 | Activity [9]: 1
FLGGLMKAFPAIICAVTKKC [satpdb13214] |  |  |  |  |  |  | Activity [3]: 0; Activity [10]: 0
PEWFKCRRWQWRMKKLGA [compound 1604] | 1 |  | 1 | 1 | 1 |  | 
SPWSQCTASCGGGVQTR [satpdb21725] | 1 |  | 1 | 1 | 1 |  | 

Substance | Activity [1] | Activity [2] | Activity [4] | Activity [5] | Activity [6] | Activity [8] | also measured
PAWRKAFRAAWRMLKKAA [compound 1610] | 1 |  | 1 | 1 | 1 |  | 
RRPKGRGKRRREKQRPDAVPRR [satpdb18651] | 1 |  | 1 | 1 | 1 |  | 
DIEDFYTSETCPYKNDSQLAWDTCSGGTGNCGTVCCGQCFSFPVSQSCAGMADSNDCPNA [2NSW NMR - A 1-60] |  |  |  |  |  |  | Activity [7]: 0; Activity [11]: 0
RPFVEMYSEIPE [satpdb28120] | 1 |  | 1 | 1 | 1 |  | 
SFGLCRLRRGFCARGRCRFPSIPIGRCSRFVQCCRRVW [1UT3 NMR - A 1-38] |  |  |  |  |  | 0 | Activity [7]: 0
CENTISGCSRADCLLTHRKQGCQKTCGLC [5WCV NMR - A 1-29] |  |  |  |  | 0 | 0 | 
GLFVGLAKVAAHNNPAIAEHFQA [compound 4390] | 1 |  | 1 | 1 | 1 |  | 
ITMQGIQGQKIRMIMF [satpdb23309] | 1 |  | 1 | 1 | 1 |  | 
TSPQREATCTSEVSGCPKIYNPVCGTDGITYSNECVLCSENKKRQTPVLIQKSGPC [1TGS X-ray 1.80,I,1-56] |  |  |  |  |  |  | Activity [7]: 0; Activity [11]: 0
GSIPCGESCVFIPCISSVIGCACKSKVCYKN [compound 4374] | 1 |  | 1 | 1 | 1 |  | 
GIFSKFGGKAIKNLFIKGAKNIGKEVGMDVIRTGIDVAGCKIKGEC [satpdb10976] | 0 | 0 |  |  |  |  | 
KNWKKILGKIIKVVK [compound 3509] |  | 1 |  |  |  | 1 | Activity [9]: 1
KWKLFKKIPHLAKKF [compound 1140] |  | 1 |  |  |  | 1 | Activity [9]: 1
SLIPHAINAVSAIAKHF [satpdb12892] |  |  |  |  |  |  | Activity [12]: 0; Activity [10]: 0; Activity [11]: 0
ATYYGNGLYCNKQKCWVDWNKASREIGKIIVNGWVQHGPWAPR [satpdb12250] |  | 0 |  |  |  |  | Activity [3]: 0
VDENAEDTHGLCGEKTCSPAQVCLNNECACTAIRCMIFCPNGFKVDENGCEYPCTCA [3BG4 X-ray 2.50 D 1-57] |  |  |  |  |  |  | Activity [7]: 0; Activity [11]: 0
GLFSKFVGKGIKNFLIKGVKHIGKEVGMDVIRVGIDVAGCKIKGVC [satpdb10682] | 0 | 0 |  |  |  |  | 
KFCEKPSGTWSGVCGNSGACKDQCIRLEGAKHGSCNYKLPAHRCICYYEC [satpdb13047] |  |  |  |  |  |  | Activity [3]: 0; Activity [10]: 0
